Values joined by “and” are separate entries in the source; they are usually repeats but may differ in a detail not shown here. Identical values can stand only once.

Sequence of Intestinal-type alkaline phosphatase (P19111 whole entry): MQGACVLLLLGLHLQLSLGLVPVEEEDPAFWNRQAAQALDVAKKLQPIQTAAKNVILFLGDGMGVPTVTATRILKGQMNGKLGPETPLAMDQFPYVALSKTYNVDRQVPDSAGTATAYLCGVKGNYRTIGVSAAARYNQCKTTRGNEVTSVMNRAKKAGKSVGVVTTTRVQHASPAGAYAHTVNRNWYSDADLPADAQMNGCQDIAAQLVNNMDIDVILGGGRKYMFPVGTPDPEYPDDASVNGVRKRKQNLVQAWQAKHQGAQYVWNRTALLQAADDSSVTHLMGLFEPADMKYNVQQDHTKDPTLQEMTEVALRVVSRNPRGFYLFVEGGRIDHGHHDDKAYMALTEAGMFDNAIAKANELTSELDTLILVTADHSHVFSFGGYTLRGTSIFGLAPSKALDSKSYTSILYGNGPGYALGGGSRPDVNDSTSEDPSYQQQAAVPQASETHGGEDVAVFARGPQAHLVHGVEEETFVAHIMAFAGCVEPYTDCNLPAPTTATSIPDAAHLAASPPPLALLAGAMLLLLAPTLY

One experiment addresses Intestinal-type alkaline phosphatase (Bos taurus, UniProt P19111). The experiment in a line: Alkaline Phosphatase Inhibition Assay. Particulars: pH 9.8; 37 °C. As to the method: (§1) Alkaline phosphatase (b-TNAP, c-IAP purchased from Calzyme Laboratories, Inc. USA) inhibition assay of different cyclic sulfonamides was performed using a chemiluminescent substrate i.e. CDP-Star® (disodium 2-chloro-5-(4-methoxyspiro[1,2-dioxetane-3,2'-(5-chlorotricyclo[3.3.1.13.7]decan])-4-yl]-1-phenyl phosphate). With a slight modification in reported spectrophotometric procedure, an optimized conditions of the bioassay were developed [Hessle et al., Proc. Natl. Acad. Sci., 99:9445-9449]. Buffer solution for this bioassay was composed of 8 M DEA (pH 9.8) that contain 2.5 mM MgCl2 and 0.05 mM ZnCl2. First of all, the compounds were tested at the final concentration of 200 μM(with final DMSO 1% (v/v)). In bioassay procedure, the total volume (50 μL solution) contained 10 μL of tested compound, followed by the addition of 20 μL of TNAP (1:800 times diluted (0.8 unit/mL) enzyme in assay buffer) or 20 μL of IAP (1:800 times diluted (1 unit/mL) enzyme in assay buffer). The mixture was allowed to incubate for 3-5 min at 37 °C and luminescence was measured using microplate reader (BioTek FLx800, Instruments,Inc. USA). The reaction was initiated by the addition of 20 μL of CDP-star® (final concentration of 110 μM) and the assay mixture was incubated again at 37 °C. The change in the luminescence was measured after for 15 min of incubation. The activity of each compound was compared with total activity control (without any inhibitor). Levamisole (2 mM per well) and L-phenylalanine (4 mM per well) were used as a standard inhibitors for tissuenonspecific alkaline phosphatase (TNAP) and calf intestinal alkaline phosphatase (IAP), respectively.
As usually defined, the IC50 is the concentration needed to halve the response being measured. A high value points to weaker potency. Compound `CN(C)c1ccc2c3c(cccc13)S(=O)(=O)NC2c1cc(Cl)cc(Cl)c1O` (stereo unspecified) [6-(Dimethylamino)-3-(3',5'-dichloro-2-hydroxyphenyl)-2,3-dihydronaphtho[1,8-de][1,2]thiazine 1,1-dioxide (7g)] displayed an IC50 of 380 nM. Compound `CN(C)c1ccc2c3c(cccc13)S(=O)(=O)NC2c1ccccc1` (stereo unspecified) [6-(Dimethylamino)-3-phenyl-2,3-dihydronaphtho[1,8-de][1,2]thiazine 1,1-dioxide (7a)] came in with a 50% inhibitory concentration (IC50) of 1120 nM.

Another experiment has as its target T1, Alkaline phosphatase, tissue-nonspecific isozyme (Bos taurus, UniProt P09487).
T1 sequence (P09487 whole entry): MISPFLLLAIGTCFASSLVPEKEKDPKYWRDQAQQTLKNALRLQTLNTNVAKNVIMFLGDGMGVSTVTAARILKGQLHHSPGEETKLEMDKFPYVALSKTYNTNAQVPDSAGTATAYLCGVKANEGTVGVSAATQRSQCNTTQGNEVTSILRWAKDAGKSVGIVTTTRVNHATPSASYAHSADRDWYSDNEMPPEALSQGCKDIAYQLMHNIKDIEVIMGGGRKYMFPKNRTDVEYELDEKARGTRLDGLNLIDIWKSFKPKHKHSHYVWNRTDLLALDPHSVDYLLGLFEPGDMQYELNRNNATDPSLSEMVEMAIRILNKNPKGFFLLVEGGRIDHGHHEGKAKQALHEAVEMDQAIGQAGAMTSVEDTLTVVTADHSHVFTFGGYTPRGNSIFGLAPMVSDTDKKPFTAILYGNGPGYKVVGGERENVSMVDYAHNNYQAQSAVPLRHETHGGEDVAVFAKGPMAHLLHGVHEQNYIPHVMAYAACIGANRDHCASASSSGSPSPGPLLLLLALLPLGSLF
The experiment in a line: Alkaline Phosphatase Inhibition Assay. The settings on record: pH 9.8; 37 °C. As to the method: as §1
As for `COc1cc(Br)c(C2NS(=O)(=O)c3cccc4c(N(C)C)ccc2c34)cc1O` (stereo unspecified) [6-(Dimethylamino)-3-(5'-bromo-2'-hydroxy-3'-methoxyphenyl)-2,3-dihydronaphtho[1,8-de][1,2]thiazine 1,1-dioxide (7m)], the IC50 was 440 nM and 680 nM. The same measure, in the same setting: for `N[C@@H](Cc1ccccc1)C(=O)O` [L-[2,3,4,5,6-3H]phenylalanine] the value was 80200 nM. Same read-out and setting: the value for `CN(C)c1ccc2c3c(cccc13)S(=O)(=O)NC2c1cc(Cl)cc(Cl)c1O` (stereo unspecified) [6-(Dimethylamino)-3-(3',5'-dichloro-2-hydroxyphenyl)-2,3-dihydronaphtho[1,8-de][1,2]thiazine 1,1-dioxide (7g)] was 270 nM; that for `CSc1ccc(C2NS(=O)(=O)c3cccc4c(N(C)C)ccc2c34)cc1` (stereo unspecified) [6-(Dimethylamino)-3-(4'-thiomethylphenyl)-2,3-dihydronaphtho[1,8-de][1,2]thiazine 1,1-dioxide (7e)] was 6630 nM.

Regarding `COc1ccc(C2NS(=O)(=O)c3cccc4c(N(C)C)ccc2c34)cc1O` (stereo unspecified) [6-(Dimethylamino)-3-(3'-hydroxy-4'-methoxyphenyl)-2,3-dihydronaphtho[1,8-de][1,2]thiazine 1,1-dioxide (7k)], the IC50 was 270 nM and 1690 nM.

`CN(C)c1ccc2c3c(cccc13)S(=O)(=O)NC2c1ccc(O)cc1` (stereo unspecified) [6-(Dimethylamino)-3-(4'-hydroxyphenyl)-2,3-dihydronaphtho[1,8-de][1,2]thiazine 1,1-dioxide (7d)] showed an IC50 of 500 nM. The same measure, in the same setting: the value for `CN(C)c1ccc2c3c(cccc13)S(=O)(=O)NC2c1ccc(Cl)cc1` (stereo unspecified) [6-(Dimethylamino)-3-(4'-dichlorophenyl)-2,3-dihydronaphtho[1,8-de][1,2]thiazine 1,1-dioxide (7b)] was 420 nM. Same read-out and setting: for `COc1cc(C2NS(=O)(=O)c3cccc4c(N(C)C)ccc2c34)ccc1O` (stereo unspecified) [6-(Dimethylamino)-3-(4'-hydroxy-3'-methoxyphenyl)-2,3-dihydronaphtho[1,8-de][1,2]thiazine 1,1-dioxide (7j)] the value was 200 nM. On the same count and under the same terms, for `Cc1ccc(C2NS(=O)(=O)c3cccc4c(N(C)C)ccc2c34)cc1` (stereo unspecified) [6-(Dimethylamino)-3-(4'-methylphenyl)-2,3-dihydronaphtho[1,8-de][1,2]thiazine 1,1-dioxide (7c)] the value was 460 nM; for `COc1ccccc1C1NS(=O)(=O)c2cccc3c(N(C)C)ccc1c23` (stereo unspecified) [6-(Dimethylamino)-3-(2'-methoxyphenyl)-2,3-dihydronaphtho[1,8-de][1,2]thiazine 1,1-dioxide (7i)], 310 nM. On to `CN(C)c1ccc2c3c(cccc13)S(=O)(=O)NC2c1ccccc1` (stereo unspecified) [6-(Dimethylamino)-3-phenyl-2,3-dihydronaphtho[1,8-de][1,2]thiazine 1,1-dioxide (7a)], for which the IC50 was 190 nM. On the same count and under the same terms, for `COc1ccc(C2NS(=O)(=O)c3cccc4c(N(C)C)ccc2c34)c(OC)c1OC` (stereo unspecified) [6-(Dimethylamino)-3-(2',3',4'-trimethoxyphenyl)-2,3-dihydronaphtho[1,8-de][1,2]thiazine 1,1-dioxide (7n)] the value was 1190 nM and 510 nM; for `CN(C)c1ccc2c3c(cccc13)S(=O)(=O)NC2c1cccc([N+](=O)[O-])c1` (stereo unspecified) [6-(Dimethylamino)-3-(3'-nitrophenyl)-2,3-dihydronaphtho[1,8-de][1,2]thiazine 1,1-dioxide (7f)], 1450 nM. The same measure, in the same setting: for `CN(C)c1ccc2c3c(cccc13)S(=O)(=O)NC2c1ccc([N+](=O)[O-])cc1` (stereo unspecified) [6-(Dimethylamino)-3-(4'-nitrophenyl)-2,3-dihydronaphtho[1,8-de][1,2]thiazine 1,1-dioxide (7h)] the value was 110 nM.

(Values after BindingDB's records for doi:10.1016/j.bioorg.2017.01.008 (University of Karachi, 2017).)
